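These data come from cells grown in 96-well plates and exposed to compound for 48 hours at five concentrations. At the GI50, growth is halved. Definition used: TGI = concentration required for complete inhibition of growth.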
How the values were obtained:
Assay in all cases: NCI tumour cell line growth inhibition, 48 h
[1] = system: OVCAR-5 ovarian
[2] = system: BT-549 breast
[3] = system: UO-31 renal
[4] = system: SNB-75 CNS
[5] = system: NCI-H23 lung
[6] = system: HOP-92 NSCLC
[7] = system: UACC-62 melanoma
[8] = system: MALME-3M melanoma
[9] = system: MDA-MB-435
[10] = system: SK-MEL-28 melanoma

SMILES	GI50 [1]	TGI [1]	GI50 [2]	TGI [2]	GI50 [3]	TGI [3]	GI50 [4]	TGI [4]	GI50 [5]	TGI [5]	GI50 [6]	TGI [6]	GI50 [7]	TGI [7]	GI50 [8]	TGI [8]	GI50 [9]	TGI [9]	GI50 [10]	TGI [10]
S=C(NCCNC(=S)[S][Sn]([c]1ccccc1)([c]1ccccc1)[c]1ccccc1)[S][Sn]([c]1ccccc1)([c]1ccccc1)[c]1ccccc1	0.0496 µM	0.123 µM	0.0799 µM	0.183 µM	0.0337 µM	0.1 µM	0.0162 µM	0.087 µM	0.0273 µM	0.119 µM	0.0102 µM	0.0493 µM	0.0231 µM	0.104 µM	0.0687 µM	0.201 µM	15.3 nM	0.0559 µM	0.0237 µM	0.0817 µM
CC/C(=C(/c1ccc(O)cc1)c1ccc(OCCN)cc1)c1ccccc1	6.26 µM	20.2 µM	6.31 µM	19.6 µM	2.72 µM	8.57 µM	1.86 µM	12.1 µM	4.56 µM	16.5 µM	1.46 µM	5.84 µM	2.44 µM	7.43 µM	1.69 µM	3.53 µM	1630 nM	3.42 µM	1.75 µM	3.38 µM
C[C@]12CC[C@@H]3c4cc(OC(F)F)c(OS(N)(=O)=O)cc4CC[C@H]3[C@@H]1CC[C@@H]2OS(N)(=O)=O	4.73 µM	26.5 µM	3.19 µM	20.4 µM	1.42 µM	19.4 µM	0.463 µM	2.15 µM	2.44 µM	21.6 µM	1.15 µM	10.6 µM	1.38 µM	16.8 µM	2.35 µM	22 µM	241 nM	3.04 µM	2.94 µM	20.3 µM
N=C(N)SCc1c2ccccc2c(CSC(=N)N)c2ccccc12	14.8 µM	28.7 µM	16.9 µM	58.3 µM	14.1 µM	34.5 µM	12.2 µM	26.9 µM	4.04 µM	20.5 µM	2.8 µM	19.9 µM	3.59 µM	20.3 µM	6.85 µM	25.2 µM	12100 nM	32.6 µM	10.6 µM	24.1 µM
N=N/C(=C\c1c(O)[nH]c2ccccc12)c1ccccc1		> 100 µM		62.3 µM		> 100 µM		63.8 µM		> 87.8 µM		> 100 µM		> 100 µM		> 78 µM		20.3 µM		> 100 µM
c1ccc2cc(NCNc3ccc4ccccc4c3)ccc2c1		51.5 µM		53.2 µM		41.6 µM		30.9 µM		30.5 µM		26.6 µM		30.7 µM		20 µM		3.32 µM		> 88.9 µM
N#Cc1c(N2CCOCC2)nc(=S)[nH]c1-c1ccccc1	18.3 µM	> 100 µM	8.78 µM	> 100 µM	4.57 µM	> 100 µM	6.12 µM	> 100 µM	34.5 µM	> 100 µM	3.94 µM	> 100 µM	4.95 µM	> 100 µM	5.19 µM	58.9 µM	29700 nM	> 100 µM	20.5 µM	> 100 µM
O=C(/C(=C/c1ccc([N+](=O)[O-])cc1)SCc1ccc(Cl)cc1)c1ccc(F)cc1	3 µM	12.1 µM	2.06 µM	4.56 µM	1.96 µM	13.6 µM	16.1 µM	65.6 µM	3.92 µM	21.9 µM	10.2 µM	34 µM	2.27 µM	8.47 µM	3.22 µM	12.3 µM	2230 nM	5.87 µM	4.26 µM	16.2 µM
O=[N+]([O-])c1ccc(C2CC(c3ccccc3)=Nc3ccccc3S2)cc1 (centres undefined)	> 100 µM	> 100 µM	> 100 µM	> 100 µM	3.8 µM	> 100 µM	8.55 µM	> 100 µM	> 100 µM	> 100 µM	24.5 µM	> 100 µM	> 100 µM	> 100 µM	> 100 µM	> 100 µM	> 100000 nM	> 100 µM	> 100 µM	> 100 µM
CCNC(=O)Nc1ccc(Oc2ccnc3ccc4c(ccn4C)c23)cc1	> 100 µM	> 100 µM	56.3 µM	> 100 µM	92.3 µM	> 100 µM	59.9 µM	> 100 µM	> 100 µM	> 100 µM	45.5 µM	> 100 µM	19.5 µM	39.3 µM	38.3 µM	> 100 µM	> 100000 nM	> 100 µM	9.33 µM	> 100 µM
COC(=O)C1=CO[C@@H](OC2OC(CO)C(O)C(O)C2O)[C@H]2[C@@H](C)[C@@H](O)[C@@H](O)[C@@H]12 (some centres undefined)		> 100 µM		> 100 µM		> 100 µM		> 100 µM		> 100 µM		> 100 µM		> 100 µM		> 100 µM		> 100 µM		> 100 µM
COc1cccc(/C=N/NC(=O)c2ccccc2N2CCCC2)c1O	9.72 µM	> 100 µM	12.6 µM	> 100 µM	2.28 µM	> 100 µM	16.9 µM	> 100 µM	7.85 µM	> 100 µM	4.67 µM	> 100 µM	3.73 µM	19.7 µM	15 µM	88.1 µM	18300 nM	> 100 µM	5.27 µM	> 100 µM
C[C@@H](NC(=O)/C(C#N)=C/c1ccc([N+](=O)[O-])cc1)c1ccccc1	1.96 µM	4.06 µM	1.75 µM	3.55 µM	0.559 µM	1.06 µM	2.19 µM	8.33 µM	2.08 µM	5.02 µM	1.89 µM	5.96 µM	1.8 µM	3.71 µM	2.92 µM	8.31 µM	2700 nM	7.63 µM	1.95 µM	3.83 µM
COc1ccc(Nc2cc(C)nc(NCc3ccccc3)n2)cc1	5.31 µM	20.1 µM	4.42 µM	17.7 µM	2.77 µM	15.9 µM	4.65 µM	18.8 µM	3.55 µM	16.3 µM	1.19 µM	6.43 µM	2.84 µM	14.4 µM	2.36 µM	9.2 µM	3160 nM	13 µM	2.39 µM	6.97 µM
CCOC(=O)Nc1nc2ccc(Br)cc2s1	> 50 µM	> 50 µM	> 50 µM	> 50 µM	> 50 µM	> 50 µM	> 50 µM	> 50 µM	> 50 µM	> 50 µM	> 50 µM	> 50 µM	> 50 µM	> 50 µM	> 50 µM	> 50 µM	> 50000 nM	> 50 µM	> 50 µM	> 50 µM
N/C(=N/N=C/c1ccccc1)N/N=C\c1ccccc1	19.4 µM	> 100 µM	7.2 µM	46.4 µM	5.1 µM	78.3 µM	9.67 µM	> 100 µM	6.78 µM	> 100 µM	2.52 µM	42.2 µM	7.92 µM	28.6 µM	6.84 µM	27.2 µM	1760 nM	6.61 µM	10.7 µM	33.3 µM
O=C([O][Hg][CH2]C1OCCOC1[CH2][Hg][O]C(=O)c1ccccc1)c1ccccc1 (centres undefined)	22.3 µM	36.7 µM	8.22 µM	20.4 µM	1.79 µM	3.27 µM	16 µM	29.5 µM	8.21 µM	21.3 µM	37.6 µM	59.4 µM	16.5 µM	30.3 µM	2.18 µM	3.88 µM	15900 nM	29.3 µM	5.13 µM	16.8 µM
C#CCN(Cc1nc2cc(C(F)(F)F)ccc2nc1-c1ccccc1)c1ccc(C)cc1	> 21.2 µM	> 40.9 µM	22.2 µM	69.9 µM	13.2 µM	45.5 µM		> 25.2 µM	8.48 µM	> 34.7 µM	31.7 µM	> 84.8 µM	7.32 µM	27.9 µM	15.7 µM	42.3 µM	2730 nM	9.09 µM	13.9 µM	> 41 µM
CC(C)(C)[Si](C)(C)OC1[C@@H](O[Si](C)(C)C(C)(C)C)[C@@H](CNC(=O)NC(=O)CF)O[C@H]1n1cnc2c(NC(=O)Nc3ccccc3)ncnc21 (some centres undefined)	15.9 µM	> 50 µM	12.2 µM	42.5 µM	11.2 µM	> 50 µM	8.45 µM	> 50 µM	14.3 µM	> 50 µM	6.48 µM	19.8 µM	31.2 µM	> 50 µM	30.8 µM	> 50 µM	14600 nM	> 50 µM	> 50 µM	> 50 µM
COc1cc(-c2oc3c(OC)cc(OC)c(O)c3c(=O)c2OC)cc(OC)c1OC		> 100 µM		> 100 µM		> 100 µM		5.06 µM		> 100 µM		> 100 µM		> 100 µM		> 100 µM		> 100 µM		> 100 µM
COCCNc1ccc2c3c(cccc13)C(=O)N(CCN(C)C)C2=O	9.41 µM	> 25 µM	10.7 µM	> 25 µM	4.89 µM	19.5 µM	15.9 µM	> 25 µM	8.04 µM	> 25 µM	10.2 µM	> 25 µM	4.54 µM	14.4 µM	6.13 µM	21.1 µM	8150 nM	> 25 µM	7.16 µM	23.1 µM
Cn1cc(C2=C(c3c4n(c5ccccc35)CCC(CN)C4)C(=O)NC2=O)c2ccccc21 (centres undefined)	2.94 µM	7.15 µM	4.06 µM	7.75 µM	3.25 µM	6.58 µM	0.594 µM	4.05 µM	3.6 µM	7.74 µM	5.25 µM	12.3 µM	3 µM	6.21 µM	2.75 µM	6.07 µM	2520 nM	5.97 µM	3.82 µM	7.31 µM
COc1cc(/C(=C2/O[C@@H]([C@H]3COC(C)(C)O3)[C@H]3OC(C)(C)O[C@@H]23)c2ccc3ccccc3c2)cc(OC)c1OC	14 µM	> 100 µM	3.22 µM	8.1 µM	3.47 µM	> 100 µM	2.89 µM	7.44 µM	5.43 µM	> 100 µM	2.67 µM	13.3 µM	7.13 µM	> 100 µM	2.07 µM	5.59 µM	3610 nM	17.5 µM	2.86 µM	9.65 µM
CCOC(=O)c1cc(C(=O)c2cc(OC)c(OC)c(OC)c2)n2c1ccc1ccccc12	0.539 µM	> 100 µM	1.08 µM	> 100 µM	0.502 µM	> 100 µM	0.0599 µM	0.617 µM	0.478 µM	> 100 µM	1.43 µM	> 100 µM	0.171 µM	> 100 µM	0.634 µM	> 100 µM	36.7 nM	0.173 µM	1.45 µM	> 100 µM
CC[C@@H](C(=O)[C@H](C)[C@H](O)[C@@H](C)[C@H]1O[C@H]([C@@H](CC)C(=O)N(CC)CC)CC[C@H]1C)C1O[C@]2(C=C[C@@H](O)[C@]3(CC[C@@](C)([C@H]4CC[C@](O)(CC)[C@H](C)O4)O3)O2)[C@H](C)C[C@@H]1C (some centres undefined)	2.85 µM	11.1 µM	3.33 µM	14.8 µM	2.4 µM	7.94 µM	1.72 µM	11.1 µM	2.81 µM	8.94 µM	1.45 µM	5.43 µM	2.43 µM	10.8 µM	2.21 µM	5.7 µM	2810 nM	9.8 µM	4.97 µM	17 µM
